In PubChem BioAssay AID1963861 (Molecular Pharmacology Branch, DTP, NCI, 2024):

System: 885724-159-R-J1-PDC KRAS PDC multicell spheroid viability
Assay: Anticancer human tumor 885724-159-R-J1-PDC patient-derived pancreatic adenocarcinoma cell line growth inhibition [KRAS2]
Details: for IC50: curve of first compound; for viability, T/C: stronger effect = lower value
How it was run: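 Combination screen of spheroid viability in tumor-cell co-cultures with endothelial (HUVEC) and mesenchymal stem cell stroma. Each agent was tested in half-log dilutions, topping at clinical Cmax or at 10 microM without a known Cmax.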

[1] = second compound 0.1 µM, first compound 0.0316 µM
[2] = second compound 0.1 µM, first compound 0.1 µM
[3] = second compound 0.1 µM, first compound 0.316 µM
[4] = second compound 0.1 µM, first compound 1 µM
[5] = second compound 0.1 µM, first compound 3.16 µM
[6] = second compound 0.1 µM, first compound 10 µM
[7] = second compound 0.316 µM, first compound 0.0316 µM
[8] = second compound 0.316 µM, first compound 0.1 µM
[9] = second compound 0.316 µM, first compound 0.316 µM
[10] = second compound 0.316 µM, first compound 1 µM
[11] = second compound 0.316 µM, first compound 3.16 µM
[12] = second compound 0.316 µM, first compound 10 µM
[13] = second compound 1 µM, first compound 0.0316 µM
[14] = second compound 1 µM, first compound 0.1 µM
[15] = second compound 1 µM, first compound 0.316 µM
[16] = second compound 1 µM, first compound 1 µM
[17] = second compound 1 µM, first compound 3.16 µM
[18] = second compound 1 µM, first compound 10 µM
[19] = second compound 3.16 µM, first compound 0.0316 µM
[20] = second compound 3.16 µM, first compound 0.1 µM
[21] = second compound 3.16 µM, first compound 0.316 µM
[22] = second compound 3.16 µM, first compound 1 µM
[23] = second compound 3.16 µM, first compound 3.16 µM
[24] = second compound 3.16 µM, first compound 10 µM
[25] = second compound 10 µM, first compound 0.0316 µM
[26] = second compound 10 µM, first compound 0.1 µM
[27] = second compound 10 µM, first compound 0.316 µM
[28] = second compound 10 µM, first compound 1 µM
[29] = second compound 10 µM, first compound 3.16 µM
[30] = second compound 10 µM, first compound 10 µM
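Note: spheroids exposed to agents for 7 days before readout.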

Compound COc1cc2nccc(Oc3ccc(NC(=O)C4(C(=O)Nc5ccc(F)cc5)CC4)cc3)c2cc1OC + COc1cc2nc(C)nc(NC(C)c3cc(N)cc(C(F)(F)F)c3)c2cc1OC1CCOC1 has an IC50 (second compound 0.1 µM) of over 10000 nM, an IC50 (second compound 0.316 µM) of over 10000 nM and an IC50 (second compound 1 µM) of 4630 nM. It also gave an IC50 (second compound 3.16 µM) of 1720 nM, an IC50 (second compound 10 µM) of under 31.6 nM and a viability, T/C [1] of 99.6%. For the same compound, the viability, T/C [2] was 102%, the viability, T/C [3] was 104% and the viability, T/C [4] was 91%. The viability, T/C [5] was 65.2%, the viability, T/C [6] was 60% and the viability, T/C [7] was 96.6%. For the same compound, the viability, T/C [8] was 93.5%, the viability, T/C [9] was 93.1% and the viability, T/C [10] was 80.9%. For the same compound, the viability, T/C [11] was 65.8%, the viability, T/C [12] was 54.8% and the viability, T/C [13] was 97.4%. For the same compound, the viability, T/C [14] was 93.4%, the viability, T/C [15] was 76.2% and the viability, T/C [16] was 73.9%. For the same compound, the viability, T/C [17] was 48.7%, the viability, T/C [18] was 44.6% and the viability, T/C [19] was 88.8%. It also gave a viability, T/C [20] of 97.9%, a viability, T/C [21] of 89.5% and a viability, T/C [22] of 67.6%. It also gave a viability, T/C [23] of 28.7%, a viability, T/C [24] of 31.8% and a viability, T/C [25] of 55%. It also gave a viability, T/C [26] of 17.2%, a viability, T/C [27] of 21.5% and a viability, T/C [28] of 28.1%. The viability, T/C [29] was 0.71% and the viability, T/C [30] was 0.34%.
In the case of COC(=O)c1ccc2c(C(=Nc3ccc(N(C)C(=O)CN4CCN(C)CC4)cc3)c3ccccc3)c(O)[nH]c2c1 + COc1cc2nc(C)nc(NC(C)c3cc(N)cc(C(F)(F)F)c3)c2cc1OC1CCOC1, the IC50 (second compound 0.1 µM) is reported as 2290 nM, the IC50 (second compound 0.316 µM) is reported as 2430 nM and the IC50 (second compound 1 µM) is reported as 1980 nM. For the same compound, the IC50 (second compound 3.16 µM) was 1780 nM, the IC50 (second compound 10 µM) was under 31.6 nM and the viability, T/C [1] was 121%. It also gave a viability, T/C [2] of 127%, a viability, T/C [3] of 120% and a viability, T/C [4] of 118%. The viability, T/C [5] was 23.7%, the viability, T/C [6] was 1.54% and the viability, T/C [7] was 107%. For the same compound, the viability, T/C [8] was 114%, the viability, T/C [9] was 102% and the viability, T/C [10] was 103%. It also gave a viability, T/C [11] of 34.5%, a viability, T/C [12] of 0.96% and a viability, T/C [13] of 103%. For the same compound, the viability, T/C [14] was 106%, the viability, T/C [15] was 107% and the viability, T/C [16] was 98.1%. The viability, T/C [17] was 17%, the viability, T/C [18] was 1.09% and the viability, T/C [19] was 93.8%. It also gave a viability, T/C [20] of 98.6%, a viability, T/C [21] of 104% and a viability, T/C [22] of 95.8%. It also gave a viability, T/C [23] of 3.95%, a viability, T/C [24] of 0.79% and a viability, T/C [25] of 46.7%. The viability, T/C [26] was 48.8%, the viability, T/C [27] was 19.4% and the viability, T/C [28] was 8.2%. For the same compound, the viability, T/C [29] was 0.75% and the viability, T/C [30] was 0.36%.
With CC(C)n1nc(-c2ccc3oc(N)nc3c2)c2c(N)ncnc21 + C=CC(=O)N1CCN(c2nc(=O)n(-c3c(C)ccnc3C(C)C)c3nc(-c4c(O)cccc4F)c(F)cc23)C(C)C1 the IC50 (second compound 0.1 µM) was 37 nM, the IC50 (second compound 0.316 µM) was 38 nM and the IC50 (second compound 1 µM) was 24 nM. For the same compound, the IC50 (second compound 3.16 µM) was 13.7 nM, the IC50 (second compound 10 µM) was 3.9 nM and the viability, T/C (second compound 0.1 µM, first compound 0.000316 µM) was 97.8%. The viability, T/C (second compound 0.1 µM, first compound 0.001 µM) was 82.4%, the viability, T/C (second compound 0.1 µM, first compound 0.00316 µM) was 74.6% and the viability, T/C (second compound 0.1 µM, first compound 0.01 µM) was 61%. The viability, T/C [1] was 50.5%, the viability, T/C [2] was 42.7% and the viability, T/C (second compound 0.316 µM, first compound 0.000316 µM) was 98.8%. It also gave a viability, T/C (second compound 0.316 µM, first compound 0.001 µM) of 82.9%, a viability, T/C (second compound 0.316 µM, first compound 0.00316 µM) of 72.2% and a viability, T/C (second compound 0.316 µM, first compound 0.01 µM) of 63.9%. The viability, T/C [7] was 51.2%, the viability, T/C [8] was 41.6% and the viability, T/C (second compound 1 µM, first compound 0.000316 µM) was 98.4%. It also gave a viability, T/C (second compound 1 µM, first compound 0.001 µM) of 77.6%, a viability, T/C (second compound 1 µM, first compound 0.00316 µM) of 68.8% and a viability, T/C (second compound 1 µM, first compound 0.01 µM) of 58.3%. The viability, T/C [13] was 47.9%, the viability, T/C [14] was 40.2% and the viability, T/C (second compound 3.16 µM, first compound 0.000316 µM) was 112%. For the same compound, the viability, T/C (second compound 3.16 µM, first compound 0.001 µM) was 77.4%, the viability, T/C (second compound 3.16 µM, first compound 0.00316 µM) was 68.3% and the viability, T/C (second compound 3.16 µM, first compound 0.01 µM) was 51.5%. It also gave a viability, T/C [19] of 43.7%, a viability, T/C [20] of 40.4% and a viability, T/C (second compound 10 µM, first compound 0.000316 µM) of 74.7%. The viability, T/C (second compound 10 µM, first compound 0.001 µM) was 59%, the viability, T/C (second compound 10 µM, first compound 0.00316 µM) was 49.9% and the viability, T/C (second compound 10 µM, first compound 0.01 µM) was 46.1%. It also gave a viability, T/C [25] of 40.1% and a viability, T/C [26] of 32.9%.
